The bioavailability is the share of a dose that reaches the circulation, judged against a reference dose that is usually intravenous. A word on the IC50: it is the concentration that gives 50% inhibition.

The text below walks through data of patent EP4786454A1, “HETEROARYL DERIVATIVE AND USE THEREOF” (priority 2023, dated 2025).

Like-named read-outs stand apart in the source and are kept apart here. Some results are limits rather than exact numbers.

The nature of data set [1]: Pharmacokinetic evaluation after single intravenous and gavage administration. Conditions: mouse, in vivo, CD-1 mice, IV:1 PO:5 mg/kg. As for the experimental part:
Assay method: Mix a test compound with a mixture of 5% DMSO, 60% polyethylene glycol (PEG400) and 35% water, vortex and sonicate to prepare a clear solution of 0.2 mg/mL. Filter the solution through a microporous filter membrane for later use. Select the male CD-1 mice weighing 25 to 35 g, and administer a candidate compound solution to them via intravenous injection at a dosage of 1 mg/kg. After fasting, administer the candidate compound solution to them orally at a dosage of 5 mg/kg. After the administration to the animals, collect 25 µL of blood at 0.083, 0.25, 0.5, 1, 2, 4, 8, 12, and 24 hours, and place the blood in commercially available anticoagulant tubes pre-filled with EDTA-K2. Centrifuge the tubes for 10 minutes to separate the plasma, and store them at -60 °C. Determine the content of the target compound in the plasma samples by LC/MS/MS, and calculate the pharmacokinetic parameters using Phoenix WinNonlin software (Pharsight, USA).
Definition of each parameter: IV: intravenous injection; PO: oral administration; C0: instantaneous required concentration after intravenous injection; Cmax: peak plasma concentration after administration; Tmax: time required to reach the peak drug concentration after administration; T1/2: time required for plasma concentration to decrease by half; Vdss: apparent volume of distribution, which refers to the ratio constant between the amount of drug in the body and the plasma concentration when the drug reaches dynamic equilibrium in the body; Cl: clearance, which refers to the apparent volume of distribution of a drug cleared from the body per unit time; Tlast: time of the last test point; AUC0-last: area under the plasma concentration-time curve, which refers to the area enclosed by the plasma concentration curve on the time axis; F: a measure of the speed and extent to which a drug is absorbed into the blood circulation, which is an important indicator for evaluating the degree of drug absorption.
The purpose of this assay was to evaluate the pharmacokinetic behaviors after a single intravenous bolus and gavage administration of a compound, to investigate the bioavailability after the gavage administration, and to provide animal experimental data for clinical research.
CD-1 mice (male, 7 to 9 weeks old)
The pharmacokinetic characteristics of the compounds after intravenous and oral administration were assayed in rodents using a standard protocol. In the assay, a candidate compound was prepared into a clear solution and administered to mice via single intravenous and oral administration. The solvent for both intravenous and oral administration was a mixed solvent prepared with 5% DMSO, 60% PEG400, and 35% water. Four female CD-1 mice were used in this project. Two mice were administered intravenously, and plasma samples were collected at 0.083, 0.25, 0.5, 1, 2, 4, 8 and 24 h after the administration. The other two mice were administered orally via gavage, and plasma samples were collected at 0.25, 0.5, 1, 2, 4, 8 and 24 h after the administration. The plasma samples were […] at 4 °C and 3,200 × g for 10 min, and the supernatants were separated to give plasma samples. 20 times the volume of methanol solution containing internal standard was added to precipitate the proteins. After centrifugation at 12,000 × g for 15 min at 4 °C, 50 µL of the supernatant was taken and transferred to a 96-well plate, and centrifuged a second time, and the resulting supernatant was injected for analysis. The plasma concentration was quantitatively analyzed by LC-MS/MS method, and the pharmacokinetic parameters such as peak concentration (Cmax), clearance (CL), half-life (T1/2), […] (Vdss), area under the plasma concentration-time curve (AUC0-last), and bioavailability (F) were calculated.

Another data set concerns the target T1, hERG potassium channels (Homo sapiens, UniProt Q12809).
T1 construct: expressed in transfected cells; host or cells: CHO-hERG
Nature of the data set: Automated patch-clamp (Qpatch) assay on CHO-hERG cells. The data set is classed as cell-based. Here is the method: CHO-hERG cells were cultured in a 175 cm^2 culture flask. When cells grew to a density of 60 to 80%, the culture medium was removed. Cells were washed once with 7 mL of PBS (Phosphate Buffered Saline), and then 3 mL of cell dissociation reagent was added for digestion. After the digestion was completed, 7 mL of culture medium was added for neutralization, and then the mixture was centrifuged. The supernatant was aspirated, and then 5 mL of culture medium was added to resuspend the cells and ensure that the cell density was 2~5×10^6/mL.
The compound stock solution was diluted with DMSO. 10 µL of compound stock solution was added to 20 µL of DMSO solution, followed by 3-fold serial dilution to obtain 6 DMSO concentrations. 4 µL of the compound solution at each of the six DMSO concentrations was added to 396 µL of extracellular solution to achieve a 100-fold dilution to obtain six intermediate concentrations. Then, 80 µL of the compound solution at each of the six intermediate concentrations was added to 320 µL of extracellular solution to achieve a 5-fold dilution to the desired final test concentrations. […]
The electrophysiological process was recorded. […] This voltage stimulation was applied every 15 seconds, and recorded for 2 minutes. The extracellular solution was then given, and recorded for 5 minutes. […]
Assay data were analyzed by GraphPad Prism 5.0 software. […]

The nature of data set [2]: Pharmacokinetic evaluation after single intravenous and gavage administration. Conditions: mouse, in vivo, CD-1 mice, IV:0.5 PO:2 mg/kg.
Where [3] appears, read: read-out: Area under the plasma concentration-time curve AUC0-last PO.
Setting [4] is: read-out: Half-life T1/2 (IV) (converted).
Setting [5] is: read-out: Peak concentration Cmax.
[6] abbreviates: read-out: Tissue distribution Vdss.

T1 sequence (Q12809 whole entry): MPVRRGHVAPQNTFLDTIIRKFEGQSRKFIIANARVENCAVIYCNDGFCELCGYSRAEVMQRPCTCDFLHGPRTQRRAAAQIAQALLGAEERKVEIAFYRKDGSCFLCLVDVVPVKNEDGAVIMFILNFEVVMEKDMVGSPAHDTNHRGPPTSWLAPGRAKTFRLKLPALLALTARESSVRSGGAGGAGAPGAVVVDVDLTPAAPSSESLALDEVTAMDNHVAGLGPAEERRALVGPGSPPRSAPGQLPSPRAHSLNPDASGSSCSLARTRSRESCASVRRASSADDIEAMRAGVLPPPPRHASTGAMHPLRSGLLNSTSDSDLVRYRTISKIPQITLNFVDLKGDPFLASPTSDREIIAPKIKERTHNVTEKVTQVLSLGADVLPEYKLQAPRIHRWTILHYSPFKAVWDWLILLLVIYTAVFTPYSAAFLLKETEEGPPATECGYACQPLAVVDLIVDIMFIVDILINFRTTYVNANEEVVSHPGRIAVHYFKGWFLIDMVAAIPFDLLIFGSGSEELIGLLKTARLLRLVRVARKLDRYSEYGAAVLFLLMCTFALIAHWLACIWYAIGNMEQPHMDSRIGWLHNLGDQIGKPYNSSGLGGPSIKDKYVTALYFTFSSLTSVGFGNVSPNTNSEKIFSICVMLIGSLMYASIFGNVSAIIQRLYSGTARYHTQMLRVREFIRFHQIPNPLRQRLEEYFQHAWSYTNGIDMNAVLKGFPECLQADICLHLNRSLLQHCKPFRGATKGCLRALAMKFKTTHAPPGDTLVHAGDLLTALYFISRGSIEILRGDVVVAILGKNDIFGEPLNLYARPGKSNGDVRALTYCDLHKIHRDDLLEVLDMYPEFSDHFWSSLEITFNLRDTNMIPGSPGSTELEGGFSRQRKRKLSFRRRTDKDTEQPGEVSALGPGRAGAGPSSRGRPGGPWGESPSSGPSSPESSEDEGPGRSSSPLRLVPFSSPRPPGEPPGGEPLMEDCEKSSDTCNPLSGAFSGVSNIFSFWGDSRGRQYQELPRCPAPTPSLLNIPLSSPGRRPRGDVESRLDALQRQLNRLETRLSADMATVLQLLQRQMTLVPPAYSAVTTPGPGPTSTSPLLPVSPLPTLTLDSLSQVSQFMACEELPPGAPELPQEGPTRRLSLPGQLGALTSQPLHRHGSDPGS

As for `CC(C)(C)CC(=O)Nc1nc2c(F)cc(C#N)cn2c1-c1ccc(OC(F)(F)F)cc1` [Compound 1], the AUC(0-t) in data set [1] (setting [3]) came out at 1.41 µM·h. Besides, the bioavailability in data set [1] (read-out: Bioavailability F) was 51.1%. In data set [1] (read-out: Clearance CL), the clearance worked out at 67.8 mL/min/kg. The half-life in data set [1] (setting [4]) is 52.8 min. Also, the Cmax in data set [1] (setting [5]) is 355 nM. Moreover, the Vd in data set [1] (setting [6]) was determined as 4.89 L/kg. On hERG potassium channels, this compound returned an IC50 above 40 µM.
Regarding `CC(C)(C)CC(=O)Nc1nc2c(F)cc(C#N)cn2c1C1=CCCC1` [Compound 3], the IC50 on hERG potassium channels (CHO-hERG cells, highest test concentration 40.00 µM, read-out: IC50) is above 40 µM. Besides, in data set [2] (setting [3]), the AUC(0-t) amounted to 2.35 µM·h. Further, the bioavailability in data set [2] (read-out: Bioavailability F) turned out to be 57.3%. In addition, the clearance in data set [2] (read-out: Clearance CL) worked out at 25.6 mL/min/kg. Also, in data set [2] (setting [4]), the half-life was 30 min. In addition, in data set [2] (setting [5]), the Cmax was found to be 1150 nM. Moreover, the Vd in data set [2] (setting [6]) came to 0.94 L/kg.
